The values that follow come from US20040116385A1, “Treating and preventing viral infections with porphyrin-based compounds” (priority 2002, published 2004).

Bounds are passed on as bounds.

Data set [1] relates to V79 hamster fibroblast cells.
From the text: We have also determined the cytotoxicity of porphyrins 4, 16, 18, and 31 in V79 hamster fibroblast cells using a clonogenic assay.
For data set [2], the system named is Human glioblastoma U373 MG cells. The data set is described as follows: Dark cytotoxicity assay, U-373 MG cells. Format: cell-based. The note with it: 24 hour exposure, read-out: IC50 (dark toxicity). The protocol:
(§1) Human glioblastoma U373 MG, hamster V79 fibroblast, and mouse melanoma B16 cells were obtained from the American Type Culture Collection. Rat gliosarcoma cells were kindly provided by the University of California at San Francisco Brain Tumor Research Group. All cells were maintained in log phase monolayer cultures with RPMI 1640 supplemented with 10% fetal bovine serum and 2 mM glutamine.
(§2) Cells were seeded in 96-well culture plates, and were allowed to settle and attach for 24-48 hours. Triplicate wells were then exposed to twofold serial dilutions of test compounds at concentrations up to 250 μM. Compounds 4, 6, 10, and 12 in crystalline form were carefully weighed and dissolved in 100% DMSO to prepare stock solutions. Subsequent dilutions were performed directly in the culture medium just before the medium was administered to cells. After short-term (2 hour) or long-term (24 hour) exposure, cells were washed, and the wells were refilled with fresh culture medium. For dark toxicity trials, cells were allowed to proliferate for an additional 48-72 hours. For phototoxicity trials, washed cells were irradiated for 10 minutes with broad spectrum (600-700 nm) red light, and were then returned to an incubator for 48-72 hours.

The conditions of data set [3]: mouse, in vivo.
Data set [4] relates to 9L, U-373 MG and B16 cells. The data set is described as follows: Phototoxicity assay (red light irradiation). Format: cell-based. To be noted: irradiation with broad spectrum (600-700 nm) red light 10 minutes. As to the method: as §1, §2
Data set [5] concerns 9L, U-373MG and B16 cells. In words: Concentration-dependent cellular uptake. The class given is cell-based. To be noted: cells exposed to 1, 5, and 10 μM for 24 hours. As to the method:
The concentration-dependent uptake of compounds 4, 6, 10, and 12 was investigated in cells exposed to 1, 5, and 10 μM concentrations of the porphyrins for 24 hours. The concentration of intracellular-bound porphyrin was determined by chemical extraction of washed cell monolayers, followed by spectrophotometric or ICP-MS determinations, or both. The uptake values for 9L and U-373MG cells were very similar, and exceeded that for B16 cells. The porphyrin accumulation was invariably observed to increase with increasing concentration of the compound.

The test system of another data set is Rat gliosarcoma 9L cells. In words: Dark cytotoxicity assay, 9L cells. Format: cell-based. To be noted: 24 hour exposure, read-out: IC50 (dark toxicity). The protocol: as §1, §2
The subject of a further data set is HIV-1. To be noted: preliminary experiments.
Data set [6] concerns human leukemia K562 cells. In words: Alkaline Comet assay. The note with it: yellow light 100 W bulb 5 minutes, versus dark and light-only controls. Format: cell-based. The protocol:
The second test, the alkaline Comet assay, is a sensitive technique for determining the presence of single- and double-strand breaks and other DNA lesions such as baseless sites. Human K562 cells were incubated with porphyrins 16, 31, and 33, and were then either exposed to a source of yellow light from a 100 W bulb for 5 minutes at room temperature or kept in the dark. The cells were then immobilized on agarose slides, lysed, exposed to alkaline buffer, electrophoresed, and stained for visualization.

A further data set relates to HIV-1 strain 89.6. In words: In vitro virucidal activity against HIV-1 strain 89.6 (assay of A. Vzorov et al. 2002). Format: cell-based. To be noted: 0% = no infective particles remained. The protocol: (§3) Porphyrins 16, 31, and 33 have been assayed for in vitro virucidal activity against HIV-1 using the assay of A. Vzorov et al. (2002) (full citation below). The assay was conducted on two different strains of HIV-1, strain IIIB, and strain 89.6. The figures in the table denote the percentage of viral particles that were still infective following treatment.

The test system of another data set is HIV-1 strain IIIB. The data set is described as follows: In vitro virucidal activity against HIV-1 strain IIIB (assay of A. Vzorov et al. 2002). To be noted: 0% = no infective particles remained. The class given is cell-based. The protocol: as §3
The test system of data set [7] is supercoiled DNA substrate φX174. The data set is described as follows: Supercoiled DNA nicking assay (DNA photodamage). Format: biochemical. The note with it: for Form II (nicked) DNA produced in the dark: samples kept in the dark; for phosphodiester breaks in supercoiled DNA, light-exposed versus dark: yellow light 100 W bulb, 30 cm, 30 minutes. The source says: In the first test to determine the ability of a porphyrin to induce DNA photodamage, we used a supercoiled DNA substrate that migrates rapidly as a single band in agarose gels, but migrates much more slowly if the DNA sustains as little as a single phosphodiester break or nick. Using this technique, we examined the ability of porphyrins 16, 31 and 33 to nick the supercoiled DNA substrate φX174. The porphyrin—DNA mixtures were shielded from light until just prior to the nicking assay, at which time half of each sample remained in the dark, while the other half was exposed to yellow light from a 100 W bulb at a distance of 30 cm for 30 minutes, at room temperature. The samples were then incubated for 30 min at room temperature in the dark, and the products of the reaction were then electrophoresed on a 1% agarose gel and stained.

The IC50 is the concentration that inhibits the measured activity by half.

Consider “meso-tetra[4-(1-methyl-nido-arboranyl)methylphenyl]porphyrin tetrapotassium salt [Compound 4]”, for which the CS50 in [1] was above 300 µM. Moreover, the IC50 in data set [2] is around 150 µM; in data set [4] (2-hour exposure), around 50 µM; in [4] (24-hour exposure), around 1.5 µM; in the data set on Rat gliosarcoma 9L cells, around 150 µM. The maximum tolerated dose result in data set [3] is given as “exceeded 300 mg per kg of body weight”. In addition, the “uptake relative to the corresponding Zn(II) complexes” value in [5] was “approximately four times greater”.

“meso-tetra[3-(1-methyl-nido-carboranyl)methylphenyl]porphyrin tetrapotassium salt [Compound 10]”: the IC50 (in data set [2]; in the data set on Rat gliosarcoma 9L cells) was around 150 µM in each case. Also, the “uptake relative to the corresponding Zn(II) complexes” value in data set [5] was “approximately four times greater”.

In data set [1], “Zn(II)-meso-tetra[4-(nido-carboranyl)phenyl]porphyrin tetrapotassium salt [Compound 18]” gave a CS50 above 300 µM.

As for “meso-tetra[4-(nido-carboranyl)phenyl]porphyrin tetrapotassium salt [Compound 16]”, the “activity against HIV-1 in vitro” value with HIV-1 is listed as “high levels of activity”. In data set [6], the “DNA damage (Comet tail) after light exposure” value (shortened to “DNA damage (Comet tail)”) is “light-activated DNA damage”. Also, in the data set on HIV-1 strain 89.6, the “percentage of viral particles that were still infective following treatment” value (shortened to “percentage”) came to 0%. The substance also registered a CS50 in data set [1] above 300 µM. Also, the “percentage” value in the data set on HIV-1 strain IIIB stood at 4%. In data set [3], the maximum tolerated dose result is recorded as “exceeded 300 mg per kg of body weight”. Further, in data set [7], the “Form II (nicked) DNA produced in the dark” value (from here on “Form II”) is on record as “little Form II DNA” and the “phosphodiester breaks in supercoiled DNA, light-exposed versus dark” value is listed as “significantly more effective”.

Take “5,15-bis[bis-3,5-(1-methyl-nido-carboranyl)methylphenyl]porphyrin tetrapotassium salt [Compound 31]”: in the data set with HIV-1, the “activity against HIV-1 in vitro” value is “high levels of activity”. Also, in data set [6], the “DNA damage (Comet tail)” value was “light-activated DNA damage”. In the data set on HIV-1 strain 89.6, the “percentage” value worked out at 2%. In [1], this substance yielded a CS50 above 300 µM. In addition, the “percentage” value in the data set with HIV-1 strain IIIB worked out at 9%. For the same substance, in data set [3], the maximum tolerated dose result was “exceeded 300 mg per kg of body weight”. In data set [7], the “Form II” value is given as “little Form II DNA” and the “phosphodiester breaks in supercoiled DNA, light-exposed versus dark” value is reported as “significantly more effective”.

Regarding “Zn(II)-5,15-bis[bis-3,5-(1-methyl-nido-carboranyl)methylphenyl]porphyrin tetrapotassium salt [Compound 33]”, the “activity against HIV-1 in vitro” value in the data set on HIV-1 is recorded as “high levels of activity”. Moreover, the “DNA damage (Comet tail)” value in data set [6] is “light-activated DNA damage”. Also, the entries for the “percentage” value with HIV-1 strain 89.6 and in the data set with HIV-1 strain IIIB were 4% and 0%, respectively. Besides, the maximum tolerated dose entry in [3] is given as “exceeded 300 mg per kg of body weight”. The “Form II” value in data set [7] is listed as “little Form II DNA”. In data set [7], the “phosphodiester breaks in supercoiled DNA, light-exposed versus dark” value is given as “significantly more effective”.

On to “Zn(II)-meso-tetra[4-(1-methyl-nido-carboranyl)methylphenyl]porphyrin tetrapotassium salt [Compound 6]”, for which, in data set [3], the maximum tolerated dose entry is listed as “exceeded 300 mg per kg of body weight”.
